Reference: publication PMC9067113 (IUCrJ, 2022)
Read-outs that look alike come from different tables or passages of the source.

Key:
natural β-lactoglobulin = natural β-lactoglobulin (Bos taurus, UniProt P02754)
[1] = target: T1, β-lactoglobulin I56F/L39A/M107F (FAF) (Bos taurus, UniProt P02754, I18S/I72F/L17A/L55A/M123F); settings: for N, stoichiometry: one set of binding sites model
[2] = target: T2, β-lactoglobulin I56F/L39A/M107W (FAW) (Bos taurus, UniProt P02754, I18S/I72F/L17A/L55A/M123W)
[3] = target: T1, β-lactoglobulin I56F/L39A/M107F (FAF); settings: 50 mM phosphate buffer pH 7.5
[4] = target: T2, β-lactoglobulin I56F/L39A/M107W (FAW); settings: 50 mM phosphate buffer pH 7.5

T2 sequence (P02754 17-178 L17A/I18S/L55A/I72F/M123W): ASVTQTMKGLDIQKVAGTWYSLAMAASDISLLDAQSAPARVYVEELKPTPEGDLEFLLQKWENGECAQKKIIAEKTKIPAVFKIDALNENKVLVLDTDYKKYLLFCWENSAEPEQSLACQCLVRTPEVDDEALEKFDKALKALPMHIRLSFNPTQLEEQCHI
T1 sequence (P02754 17-178 L17A/I18S/L55A/I72F/M123F): as the sequence (P02754 17-178 L17A/I18S/L55A/I72F/M123W) above, with W107F counted along it
Chain of natural β-lactoglobulin (P02754 17-178): as the sequence (P02754 17-178 L17A/I18S/L55A/I72F/M123W) above, with A1L, S2I, A39L, F56I, W107M counted along it

## CNCCCN1c2ccccc2CCc2ccccc21 [DSM, desipramine]
Natural β-lactoglobulin; Natural BLG, pH 7.5, 25 mM HEPES, 150 mM NaCl, 293 K, one set of binding sites model
  N, stoichiometry: 0.91 ± 0.08
Natural β-lactoglobulin; Natural BLG, pH 7.5, 293 K
  TΔS a: 4.395 kcal/mol
  ΔH a, enthalpy change: -1.298 ± 0.145 kcal/mol
  ΔS a, entropy change: 15.0 cal mol^−1 K^−1
Natural β-lactoglobulin; native protein, Tris buffer pH 8.5
  outcome of ITC titration at pH 8.5: insufficient enthalpy change for the calculation of binding parameters
[1]; pH 7.5, 25 mM HEPES, 150 mM NaCl, 293 K
  N, stoichiometry: 0.94 ± 0.06
[1]; pH 7.5, 293 K
  TΔS a: 4.2192 kcal/mol
  ΔH a, enthalpy change: -1.634 ± 0.133 kcal/mol
  ΔS a, entropy change: 14.4 cal mol^−1 K^−1
[1]; pH 8.5, Tris buffer, 293 K
  TΔS a: 5.3033 kcal/mol
  ΔS a, entropy change: 18.1 cal mol^−1 K^−1
  N, stoichiometry: 1.21 ± 0.08
[2]; Tris buffer pH 8.5
  outcome of ITC titration at pH 8.5: insufficient enthalpy change for the calculation of binding parameters
[2]; pH 7.5, 25 mM HEPES, 150 mM NaCl, 293 K, one set of binding sites model
  N, stoichiometry: 0.92 ± 0.05
[2]; pH 7.5, 293 K
  TΔS a: 4.2485 kcal/mol
  ΔH a, enthalpy change: -1.792 ± 0.137 kcal/mol
  ΔS a, entropy change: 14.5 cal mol^−1 K^−1
[3]
  stoichiometry (DSM molecule per BLG chain), CD: 1
[4]
  stoichiometry (DSM molecule per BLG chain), CD: 1
